Assay results taken from US8048897B2, “Cyclohexane derivative, prodrug thereof and salt thereof, and therapeutic agent containing the same for diabetes” (Chugai Seiyaku Kabushiki Kaisha, priority 2004, dated 2011).

These compounds were tested against T1, human SGLT2 (Homo sapiens, UniProt P31639) (assay: Methyl-α-D-glucopyranoside intake inhibition activity in human SGLT2 stable expression CHO cells). Conditions: methyl-α-D-(U-14C)glucopyranoside intake, 37° C., 45 minutes.
T1 construct: expressed in transfected cells; host or cells: CHO-K1
T1 sequence (P31639 1-672): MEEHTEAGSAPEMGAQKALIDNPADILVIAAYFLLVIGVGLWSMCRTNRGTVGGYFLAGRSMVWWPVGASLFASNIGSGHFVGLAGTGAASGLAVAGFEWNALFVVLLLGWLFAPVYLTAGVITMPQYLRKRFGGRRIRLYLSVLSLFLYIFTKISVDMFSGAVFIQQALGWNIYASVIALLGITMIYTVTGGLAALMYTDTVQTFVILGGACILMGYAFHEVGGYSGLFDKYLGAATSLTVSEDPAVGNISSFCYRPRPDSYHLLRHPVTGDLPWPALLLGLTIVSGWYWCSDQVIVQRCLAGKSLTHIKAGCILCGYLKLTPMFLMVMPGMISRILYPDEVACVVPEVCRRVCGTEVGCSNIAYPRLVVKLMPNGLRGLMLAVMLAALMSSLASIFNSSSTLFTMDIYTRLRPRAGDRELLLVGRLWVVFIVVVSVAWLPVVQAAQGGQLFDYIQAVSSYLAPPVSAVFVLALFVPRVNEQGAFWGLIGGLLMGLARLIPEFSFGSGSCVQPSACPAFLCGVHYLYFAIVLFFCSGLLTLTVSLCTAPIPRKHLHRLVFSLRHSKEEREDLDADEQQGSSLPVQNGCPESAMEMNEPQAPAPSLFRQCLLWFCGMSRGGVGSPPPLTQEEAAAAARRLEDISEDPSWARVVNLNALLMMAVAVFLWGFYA
Type: cell-based
Protocol: Test for Confirming Action of Inhibiting Human Na^+-Glucose Co-Transporters (SGLT1 and SGLT2)
(2) Preparation of Human SGLT2 Expression Vector
PCR was performed by KOD+DNA polymerase by taking a human kidney-derived cDNA library (a product of Clontech) as a template with the use of a synthesized DNA primer to amplify human SGLT2 cDNA. […] From the proliferated E. coli, a plasmid was purified according to the usual way. By taking this plasmid as a template, PCR was performed by KOD+DNA polymerase with the use of a synthetic DNA primer into which restriction enzyme recognition sites had been introduced to amplify human SGLT2 cDNA (a fragment added with Xho I recognition site on the upstream side and a Hind III recognition site on the downstream side). This amplified fragment was subjected to Xho I and Hind III digestion, and the digested fragments were connected to their recognition sites of the expression vector pcDNA 3.1(−) with the use of the Rapid DNA Ligation kit. The connected expression vector was introduced into E. coli competent cells (DH5α) and proliferated in an ampicillin-containing LB medium to obtain a human SGLT2 expression vector according to the usual way.
(3) Preparation of Human SGLT1 Stable Expression Cell and Human SGLT2 Stable Expression Cell
The human SGLT1 expression vector or the human SGLT2 expression vector which was digested with restriction enzyme Pvu I was introduced into CHO-K1 cells with the use of FuGene (a product of Roche Diagonostics). After introduction of the gene, the cells were incubated in a DMEM medium (a product of Gibco) containing penicillin (50 U/mL, a product of Sigma), streptomycin (50 mg/L, a product of Sigma), Geneticin (200 mg/L, a product of Nakalai Tesque) and 20% bovine fetal serum in the presence of 5% CO2 at 37° C. for about three weeks to obtain Genticin-resistant clones. From these clones, cells capable of stably expressing human SGLT1 or the human SGLT2 were selected and obtained by using sodium dependent sugar (methyl-α-D-glucopyranoside) intake activity as an index.
(4) Measurement of Methyl-α-D-glucopyranoside Intake Inhibition Activity
The human SGLT1 stable expression CHO cells or the human SGLT2 stable expression CHO cells was seeded in a 96-well plate to a density of 30,000 to 40,000 cells/well and incubated for four to six days. Next, the medium of the culture plate was removed, and a pretreatment buffer (a buffer containing 140 mM of choline chloride, 2 mM of potassium chloride, 1 mM of calcium chloride, 1 mM of magnesium chloride, 10 mM of 2-[4-(2-hydroxyethyl)-1-piperazinyl]ethanesulfonic acid and tris(hydroxymethyl)-aminomethane and having a pH of 7.4) was added in an amount of 150 μL per well and then left to stand at 37° C. for 20 minutes. The pretreatment buffer was removed and the pretreatment buffer was again added in an amount of 50 μL per well and then left to stand at 37° C. for 20 minutes. To 100 mL of a buffer (a buffer containing 140 mM of sodium chloride, 1 mM of potassium chloride, 1 mM of magnesium chloride, 1 mM of methyl-α-D-glucopyranoside, 10 mM of 2-[4-(2-hydroxyethyl)-1-piperazinyl]ethanesulfonic acid and tris(hydroxymethyl)aminomethane and having a pH of 7.4), there was added and mixed 6.3 mL of methyl-α-D-(U-^14C)glucopyranoside (200 mCi/L, a product of Amersham Pharmacia Biotech) to prepare an intake buffer, and a test compound was dissolved in this intake buffer and the resulting solution was used as a buffer for determining inhibition activity. Further, as a control, a test compound-free intake buffer was used. Furthermore, in order to determine a basic intake in the absence of the test compound and sodium, a basic intake buffer containing 140 mM of choline chloride instead of the sodium chloride was prepared in the same manner and used in the determina-tion. […]

Structure (SMILES)	IC50 [nM]
COc1ccc(Cc2c(F)cccc2O[C@@H]2C[C@H](CO)[C@@H](O)[C@H](O)[C@H]2O)cc1 [Example 12]	18
COc1ccc(Cc2ccccc2O[C@@H]2C[C@H](CO)[C@@H](O)[C@H](O)[C@H]2O)cc1 [Example 1, [2-(4-Methoxybenzyl)phenyl]-5a-carba-β-D-glucopyranoside]	61
CCc1ccc(Cc2sccc2O[C@@H]2C[C@H](CO)[C@@H](O)[C@H](O)[C@H]2O)cc1 [Example 55, [2-(4-Ethylbenzyl)thiophen-3-yl]-5a-carba-β-D-gluco-pyranoside]	17
CCOc1ccc(Cc2ccc(CC)cc2)cc1[C@@H]1C[C@H](CO)[C@@H](O)[C@H](O)[C@H]1O [Example 68, (1R,2R,3S,4S,6R)-4-[2-Ethoxy-5-(4-ethylbenzyl)phenyl]-6-(hydroxymethyl)cyclohexane-1,2,3-triol]	18
CCc1ccc(Cc2ccccc2O[C@@H]2C[C@H](CO)[C@@H](O)[C@H](O)[C@H]2O)cc1 [Example 25, [2-(4-Ethylbenzyl)phenyl]-5a-carba-β-D-glucopyranoside]	31
C=Cc1ccc(Cc2ccccc2O[C@@H]2C[C@H](CO)[C@@H](O)[C@H](O)[C@H]2O)cc1 [Example 44, [2-(4-Vinylbenzyl)phenyl]-5a-carba-β-D-glucopyranoside]	16
COc1ccc(Cc2cccc([C@@H]3C[C@H](CO)[C@@H](O)[C@H](O)[C@H]3O)c2)cc1 (single isomer, unassigned) [Example 2]	111

Compounds with a lower IC50, results first:

IC50 [nM]	Structure (SMILES)
14	COc1ccc(Cc2ccc(C)cc2O[C@@H]2C[C@H](CO)[C@@H](O)[C@H](O)[C@H]2O)cc1 [Example 54, [2-(4-Methoxybenzyl)-5-methylphenyl]-5a-carba-β-D-gluco-pyranoside]
7.4	CCc1ccc(Cc2cc([C@@H]3C[C@H](CO)[C@@H](O)[C@H](O)[C@H]3O)c(OC)cc2OC)cc1 [Example 70, (1R,2R,3S,4S,6R)-4-[5-(4-Ethylbenzyl)-2,4-dimethoxy-phenyl]-6-(hydroxymethyl)cyclohexane-1,2,3-triol]
7.1	OCC1=C[C@@H](Oc2ccccc2Cc2ccc(C3CC3)cc2)[C@H](O)[C@@H](O)[C@@H]1O [Example 62, (1R,2S,3R,6R)-6-[2-(4-Cyclopropylbenzyl)phenoxy]-4-(hydroxymethyl)cyclohex-4-ene-1,2,3-triol]
8.9	Cc1cc(O[C@@H]2C[C@H](CO)[C@@H](O)[C@H](O)[C@H]2O)c(Cc2ccc(C3CC3)cc2)s1 [Example 59, [2-(4-Cyclopropylbenzyl)-5-methylthiophen-3-yl]-5a-carba-β-D-glucopyranoside]
14	CSc1ccc(Cc2ccccc2O[C@@H]2C[C@H](CO)[C@@H](O)[C@H](O)[C@H]2O)cc1 [Example 11, [2-(4-Methylsulfanylbenzyl)phenyl]-5a-carba-β-D-gluco-pyranoside]
11	CCc1ccc(Cc2ccc(OC)c([C@]3(O)C[C@H](CO)[C@@H](O)[C@H](O)[C@H]3O)c2)cc1 [Example 73, (1R,2R,3S,4R,5R)-1-[5-(4-Ethylbenzyl)-2-methoxyphenyl]-5-(hydroxymethyl)cyclohexane-1,2,3,4-tetraol]
6.6	CCc1ccc(Cc2cccc(C3=C[C@H](CO)[C@@H](O)[C@H](O)[C@H]3O)c2)cc1 [Example 64, (1R,2S,3S,6R)-4-[3-(4-Ethylbenzyl)phenyl]-6-(hydroxy-methyl)cyclohex-4-ene-1,2,3-triol]
5.1	CCc1ccc(Cc2cc([C@]3(O)C[C@H](CO)[C@@H](O)[C@H](O)[C@H]3O)c(OC)cc2OC)cc1 [Example 69, (1R,2R,3S,4R,5R)-1-[5-(4-Ethylbenzyl)-2,4-dimethoxy-phenyl]-5-(hydroxymethyl)cyclohexane-1,2,3,4-tetraol]
7.7	OC[C@H]1C[C@@H](Oc2cnccc2Cc2ccc(C3CC3)cc2)[C@H](O)[C@@H](O)[C@@H]1O [Example 42, [4-(4-Cyclopropylbenzyl)pyridin-3-yl]-5a-carba-β-D-gluco-pyranoside]
7	OC[C@H]1C[C@@H](Oc2ccccc2Cc2ccc(C3CC3)cc2)[C@H](O)[C@@H](O)[C@@H]1O [Example 8, [2-(4-Cyclopropylbenzyl)phenyl]-5a-carba-β-D-glucopyranoside]
